Results as given in article PMC2879362, “Design of Group IIA Secreted/Synovial Phospholipase A2 Inhibitors: An Oxadiazolone Derivative Suppresses Chondrocyte Prostaglandin E2 Secretion” (PLoS ONE, 2010).

Assays:
[1] = tested on: IL-1β-stimulated PGE2 secretion in articular chondrocytes; assay: IL-1β-stimulated PGE2 secretion in articular chondrocytes (EIA); assay type: cell-based, rabbit; conditions: C1 at 8 µM, IL-1β 1 ng/mL (data not shown)
Procedure: We tested the effect of C8 on the IL-1β-stimulated secretion of PGE2 in chondrocytes. PGE2 synthesis takes place mainly in response to cell activation by IL-1β, and its generation accounts for many of the actions induced by this cytokine. In vitro, IL-1β induces the expression of COX-2 by chondrocytes, which results in increased PGE2 production. PGE2 release thus represents a powerful IL-1β- and PLA2-dependent inflammatory marker in our cell model. Chondrocytes were treated for 20 h with IL-1β alone or 1 h after the addition of C8. […] In DMEM alone, at concentrations of 0.31-, 0.62-, 0.94-, and 1.24-µM, C8 decreased the production of PGE2 induced by IL-1β by 59-, 58-, 74-, and 80-%, respectively (Fig. 4A). In DMEM supplemented with 0.1% BSA, at concentrations of 0.31-, 0.62-, 0.94-, 1.24-, 2.48-, and 4.96-µM, C8 decreased the production of PGE2 induced by IL-1β by 31-, 30-, 45-, 43-, 81-, and 92-%, respectively (Fig. 4B). In DMEM supplemented with 2% FCS, at concentrations of 0.31-, 0.62-, 0.94-, 1.24-, 2.48-, and 4.96-µM, C8 decreased the production of PGE2 induced by IL-1β by 26-, 48-, 49-, 54-, 68-, and 68-%, respectively (Fig. 4C). […] The effect of C8 was then evaluated at the extreme concentrations (0.31- and 4.96-µM) in DMEM supplemented with 2% FCS and containing decreasing (1-, 0.5-, and 0.25-ng/mL) IL-1β concentrations (Table 3). The anti-IL-1β inhibitory effect of C8 at 0.31 µM increases when IL-1β concentration decreases. […] This is probably due to the fact that at 4.96 µM, the inhibitory effect of C8 on IL-1β-induced PGE2 production is maximal. […] Thus, C8, but not C1, decreases the IL-1β-stimulated PGE2 secretion in a dose-dependent manner in the three culture medium compositions used.
Articular chondrocytes were isolated from 5-week-old Fauve de Bourgogne female rabbits (CPA, Orleans, France) and cultured at the first passage in conditions avoiding cell dedifferentiation as previously described. Cells were cultured at 37°C in 12-well plates in Ham's F-12 medium containing 10% FCS, 20 IU/mL penicillin, and 20 µg/mL streptomycin (all from Invitrogen) until nearly confluent. Then medium was replaced with DMEM (Invitrogen) containing 20 IU/mL penicillin, and 20 µg/mL streptomycin and, if necessary, 0.1% fatty acid free BSA (Sigma) or 2% FCS. At this time the C8 compound dissolved in DMSO (Sigma) was added to the medium (the amount of DMSO was kept at 1‰ (v/v) in all the wells). 1 h after the addition of C8, IL-1β (PeproTech) was added to the medium. Consequently, chondrocytes were incubated for 20 h with IL-1β and for 21 h with C8.
20 h after the addition of IL-1β to the chondrocytes, culture media were collected, and aliquots were stored at −80°C until PGE2 and nitrite quantification. PGE2 concentration in culture media was determined by use of an enzyme immunoassay (EIA) kit (PGE2 EIA Kit-monoclonal; Cayman Chemical). Nitrite concentration was determined by a spectrophotometry method based on the Griess reaction. Briefly, 200 µL of culture medium or sodium nitrite (NaNO2, Merck) standard dilutions were mixed with 100 µL Griess reagent [0.5% (w/v) sulphanilic acid (Merck), 0.05% (w/v) N(1-naphtyl)ethylenediamine (Merck), 30% (v/v) acetic acid, 1.5 N HCl] and incubated for 10 min at 50°C. The absorbance was measured at 540 nm.

[2] = target: T1, porcine group IB PLA2 (pGIBPLA2) (Sus scrofa, UniProt P00592); assay: In vitro fluorimetric PLA2 assay (β-py-C10-PG substrate); assay type: biochemical; conditions: 2 µM β-py-C10-PG, 6 ng/mL pancreatic PLA2
T1 construct: purchased Sigma
Procedure: (§1) The compounds C1-C8 were submitted to fluorimetric assay to determine their inhibitory potencies and selectivity towards human GIIAPLA2 (hGIIAPLA2) versus porcine group IB PLA2 (pGIBPLA2) (Table 2). GIBPLA2 is an enzyme of the same family as GIIAPLA2 (sPLA2) but is mainly involved in digestion of dietary phospholipids and is secreted by the pancreas. Lipophilicity parameters, log P, of these products are calculated by use of Rekker's fragmental data (Table 2). The molecules C1-C8 are specific inhibitors of hGIIAPLA2 because none inhibited pGIBPLA2 at the highest concentration tested (100 µM). Such selectivity implies that C1-C8 should not interfere with the digestion process.
(§2) Fatty-acid free BSA and pancreatic PLA2 were from Sigma. hGIIAPLA2 was prepared as previously described. The fluorescent substrate for PLA2 assay, 1-hexadecanoyl-2-(10-pyrenedecanoyl)-sn-glycero-3-phosphoglycerol, ammonium salt (β-py-C10-PG) was from Molecular Probes (Eugene). PLA2 activity was evaluated as previously described with β-py-C10-PG used as a substrate (2 µM final concentration). In a total volume of 1 mL, the standard reaction medium contained 50 mM Tris-HCl (pH 7.5), 500 mM NaCl, 1 mM EGTA, 2 µM β-py-C10-PG, 0.1% fatty-acid free BSA and 6 ng/mL pancreatic PLA2 or 1 ng/mL hGIIAPLA2. The fluorescence (λex = 342 nm and λem = 398 nm) of the enzymatic reaction medium was recorded for 3 min with use of a spectrofluorimeter LS 50 (Perkin-Elmer) equipped with a Xenon lamp. The reaction was initiated by the addition of CaCl2 (10 mM, final concentration). The increase in fluorescence was continuously recorded for 1 min, and PLA2 activity was calculated as previously described. When used, the inhibitor was added to the reaction medium after introduction of BSA. The activity is expressed in micromoles of fluorescent β-py-C10-PG hydrolyzed per min. The standard error of the mean of three independent experiments was less than 10%, which allows for the determination of the IC50 values (concentration of inhibitors producing 50% inhibition) of each compound.

[3] = target: T2, human GIIAPLA2 (hGIIAPLA2) (Homo sapiens, UniProt P14555); assay: as above; assay type: biochemical; conditions: 2 µM β-py-C10-PG, 1 ng/mL hGIIAPLA2
T2 construct: hGIIAPLA2 was prepared as previously described [33]; made in house
T2 sequence (P14555 21-144): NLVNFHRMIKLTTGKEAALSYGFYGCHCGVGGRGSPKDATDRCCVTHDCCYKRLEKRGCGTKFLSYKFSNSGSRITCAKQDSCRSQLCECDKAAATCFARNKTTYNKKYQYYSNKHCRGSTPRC
Procedure: as §1, §2

[4] = tested on: atherosclerosis in apolipoprotein-E-null mice; set-up: method as in PMID 19129734; conditions: cited from earlier work

T1 sequence (P00592 23-146): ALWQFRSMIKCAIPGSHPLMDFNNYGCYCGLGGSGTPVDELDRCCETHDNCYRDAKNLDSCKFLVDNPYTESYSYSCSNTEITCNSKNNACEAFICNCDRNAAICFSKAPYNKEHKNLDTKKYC

| IC50 [2] | IC50 [3] | Compound | effect on PGE2 secretion stimulated by IL-1β [1] | effect on atherosclerosis [4] |
| --- | --- | --- | --- | --- |
| > 100 µM | 6.5 ± 1.8 µM | O=c1[nH]c(Cc2ccc(OCCCCCn3ccc4cc(Cl)ccc43)cc2)no1 [C4] | – | – |
| > 100 µM | 2.5 ± 0.5 µM | COc1ccc2c(ccn2CCCCCOc2ccc(Cc3noc(=O)[nH]3)cc2)c1 [C5] | – | – |
| > 100 µM | 3 ± 0.2 µM | O=c1[nH]c(Cc2ccc(OCCCCCOc3ccc(-c4ccccc4)cc3)cc2)no1 [C6] | – | – |
| > 100 µM | 35 ± 1.8 µM | O=c1[nH]c(Cc2ccc(OCCCCCOc3ccccc3)cc2)no1 [C7] | – | – |

Second part, the compound before the results:

| Compound | IC50 [2] | IC50 [3] | effect on PGE2 secretion stimulated by IL-1β [1] | effect on atherosclerosis [4] |
| --- | --- | --- | --- | --- |
| O=c1[nH]c(Cc2ccc(OCCCCCn3ccc4ccccc43)cc2)no1 [C1, 3-{4-[5-(indol-1-yl)pentoxy]benzyl}-4H-1,2,4-oxadiazol-5-one] | > 100 µM | 5 ± 0.7 µM | does not decrease | – |
| O=c1[nH]c(Cc2ccc(OCCCCCOc3ccccc3-c3ccccc3)cc2)no1 [C2] | > 100 µM | 10 ± 1.5 µM | – | – |
| Cc1nc2cc(OCCCCCOc3ccc(Cc4noc(=O)[nH]4)cc3)ccc2s1 [C3] | > 100 µM | 5 ± 1.2 µM | – | – |
| CCc1c(C(=O)C(N)=O)c2c(OCC(=O)O)cccc2n1Cc1ccccc1 [Varespladib] | – | – | – | reduce atherosclerosis |
